The target in this test is Bromodomain-containing protein 4 (Homo sapiens, UniProt O60885). Kind of test: Inhibition of BRD4(1) (unknown origin) by Alpha screen binding assay.

The source of these data is ChEMBL document CHEMBL3132839, “Discovery of BET bromodomain inhibitors and their role in target validation” (Medchemcomm, 2014).

The IC50 is the concentration that inhibits the measured activity by half. Low values mean higher potency, high ones lower potency.

`C[S+](C)[O-]` [DIMETHYL SULFOXIDE] showed an IC50 of 280 mM.
`CNC(=O)[C@H](CCCCNC(C)=O)NC`: the IC50 is 7 mM.
